Source: paper PMC4318582, “Chemotherapy of Second Stage Human African Trypanosomiasis: Comparison between the Parenteral Diamidine DB829 and Its Oral Prodrug DB868 in Vervet Monkeys” (PLoS Neglected Tropical Diseases, 2015)
Values joined by “and” are separate entries in the source; they are usually repeats but may differ in a detail not shown here. Equal values may be shown once. “Also recorded” adds a separate entry of the source. Read-outs that look alike come from different tables or passages of the source.

Experiments:
[1] = Tolerability of dose regimens in infected vervet monkeys; type: in vivo, vervet monkey; conditions: all IM DB829 and oral DB868 dose regimens
Excerpt: Parasitaemia post-infection was monitored daily, using ear-prick capillary blood, through the completion of DB868 and DB829 treatment. Following the last drug dose (LDD), blood and CSF samples were examined for trypanosomes at 1, 4, 7, and 14 days to determine the end of treatment (EoT) response; monkeys which were positive for trypanosomes in either blood or CSF at the end of this 14-day period were classified as treatment failures/not cured while those that were free of trypanosomes were classified as provisionally cured. After the 14-day EoT evaluations, parasitaemia examinations were continued twice weekly to ≥ 300 days post-LDD as described previously. Additionally, physical examinations and haematological assessments were carried out once weekly up to 28 days post-LDD, once every two weeks between 28 and 100 days post-LDD, and monthly thereafter until the end of the study as described previously. At 300 days post-LDD, monkeys were considered cured if they remained normal clinically and parasite-free in the blood and CSF. Pharmacokinetic outcomes were monitored for a minimum of 60 days post-LDD as described previously. To facilitate the collection of blood and CSF for these assessments, the monkeys were anaesthetised with an IM injection of ketamine HCl (10–15 mg/kg) and diazepam (0.5 mg/kg). […]

[2] = system: T. b. rhodesiense KETRI 2537; conditions: cited from earlier work
[3] = Plasma pharmacokinetics in infected vervet monkeys (HPLC-MS/MS); type: in vivo, vervet monkey; conditions: for geometric mean plasma concentration (range) of prodrug DB868: within 1 h post-LDD
Excerpt: Parasitaemia post-infection was monitored daily, using ear-prick capillary blood, through the completion of DB868 and DB829 treatment. Following the last drug dose (LDD), blood and CSF samples were examined for trypanosomes at 1, 4, 7, and 14 days to determine the end of treatment (EoT) response; monkeys which were positive for trypanosomes in either blood or CSF at the end of this 14-day period were classified as treatment failures/not cured while those that were free of trypanosomes were classified as provisionally cured. After the 14-day EoT evaluations, parasitaemia examinations were continued twice weekly to ≥ 300 days post-LDD as described previously. Additionally, physical examinations and haematological assessments were carried out once weekly up to 28 days post-LDD, once every two weeks between 28 and 100 days post-LDD, and monthly thereafter until the end of the study as described previously. At 300 days post-LDD, monkeys were considered cured if they remained normal clinically and parasite-free in the blood and CSF. Pharmacokinetic outcomes were monitored for a minimum of 60 days post-LDD as described previously. To facilitate the collection of blood and CSF for these assessments, the monkeys were anaesthetised with an IM injection of ketamine HCl (10–15 mg/kg) and diazepam (0.5 mg/kg). Monkeys that relapsed, characterized by trypanosome recrudescence in the blood or CSF, were rescue-treated with melarsoprol. Melarsoprol (Mel B), supplied by the World Health Organization as a 3.6% (w/v) solution in propylene glycol, was administered intravenously at 3.6 mg/kg/day for 4 consecutive days.
Plasma samples were processed for quantification of DB868 and DB829 by high performance liquid chromatography-tandem mass spectrometry (HPLC-MS/MS) as described previously. CSF samples were processed in a manner similar to that of plasma samples.
Clinical and haematological data were analysed using Statview for Windows Version 5.0.1 (1995–1998; SAS Institute Inc., Cary, NC, USA). Repeated measures ANOVA, with Fisher’s PLSD post hoc test, was used to test the effect of trypanosome infection on haematologic parameters in comparison with respective baseline values (α = 0.05). In addition, the effects of IM DB829 and oral DB868 on these haematologic parameters in monkeys with confirmed second stage HAT were tested. Pharmacokinetic outcomes were recovered using traditional non-compartmental methods using Phoenix WinNonlin (version 6.2; Pharsight, Mountain View, CA, USA).

[4] = system: T. b. brucei GVR35; set-up: method as in PMID 19620327; conditions: cited from earlier work
[5] = system: T. b. rhodesiense KETRI 2537; test: Efficacy in KETRI vervet monkey model of second stage HAT; type: in vivo
Excerpt: The current study used the KETRI vervet monkey model of HAT, a model developed over 30 years ago through the experimental infection of vervet monkeys with T. b. rhodesiense. […] Trypanosomes were identified in peripheral blood first and cerebrospinal fluid (CSF) second, allowing the disease to be classified into an early (haemo-lymphatic) and a late (central nervous system [CNS]) stage, similar to the human disease. […] Monkey trypanosomal infections have been determined to be invariably fatal without therapeutic intervention, a characteristic also widely accepted as true for human sleeping sickness.
Parasitaemia and CSF parasitosis were monitored using established techniques for blood trypanosomes and CSF trypanosomes, respectively.
Due to a regulated freeze on acquisitions of new non-human primates, only six monkeys were available for the IM DB829 study. These animals were divided into three treatment groups, each consisting of one male and one female, to compare dose-responsiveness between consecutive- and alternate-day dosing. Monkeys were treated with 2.5 or 5 mg/kg/day for 5 consecutive days or with 5 mg/kg/day on alternating days for a total of 5 doses (Table 1).
Twelve additional monkeys were available for the oral DB868 efficacy study. These animals were, before infection, divided into three groups, each consisting of two males and two females. DB868 was administered orally to each group at 3, 10 or 20 mg/kg/day for 10 consecutive days (Table 2).
Parasitaemia post-infection was monitored daily, using ear-prick capillary blood, through the completion of DB868 and DB829 treatment. […] At 300 days post-LDD, monkeys were considered cured if they remained normal clinically and parasite-free in the blood and CSF. Pharmacokinetic outcomes were monitored for a minimum of 60 days post-LDD as described previously. […] Monkeys that relapsed, characterized by trypanosome recrudescence in the blood or CSF, were rescue-treated with melarsoprol.

[6] = set-up: method as in earlier work; conditions: cited from earlier work
[7] = system: T. b. rhodesiense; conditions: oral prodrug; cited from earlier work
[8] = system: African trypanosomes; set-up: method as in PMID 18722336, PMID 19620327; conditions: oral administration; cited from earlier work
[9] = system: human intestinal cell line (Caco-2); set-up: method as in PMID 12458675, PMID 15294005; conditions: cited from earlier work
[10] = all oral DB868 regimens combined
[11] = oral 10 mg/kg × 10 days, monkeys 688M, 690F, 695M, 697F, 10 mg/kg
[12] = oral 20 mg/kg × 10 days, monkeys 573F, 679F, 689M, 696M, 20 mg/kg

In the case of CONC(=N)c1ccc(-c2ccc(-c3ccc(C(=N)NOC)cn3)o2)nc1 [DB868, 2,5-bis[5-(N-methoxyamidino)-2-pyridyl]furan], the “tolerability of dose regimens” value [1] is given as “well tolerated”, the “efficacy against first stage HAT in monkeys” value ([2]; oral) is given as “highly active; also recorded: fully curative” and the “tolerability in monkeys, first stage HAT study” value ([2]; oral) is given as “well-tolerated”. For the same compound, the “decline of prodrug DB868 plasma concentrations” value ([3]; oral DB868, all monkeys, post-LDD) was “undetectable after 8 h”, the “geometric mean plasma concentration (range) of prodrug DB868” value (“geometric mean plasma concentration” for short) ([3]; oral DB868 3 mg/kg/day) was 120 (100–150) nmol/L and the “geometric mean plasma concentration” value ([3]; oral DB868 10 mg/kg/day) was 750 (420–1500) nmol/L. For the same compound, the “geometric mean plasma concentration” value ([3]; oral DB868 20 mg/kg/day) was 810 (370–1300) nmol/L, the “efficacy in the murine model of second stage HAT” value [4] was “fully curative” and the “Final efficacy assessment at 300 days post-LDD of DB868, Overall Results (combined cure rate)” value [5, 10] was 2/10. For the same compound, the “Provisional efficacy at 100 days post-LDD of DB868, Overall Results” value [5, 10] was 4/10, the “Provisional efficacy at EoT, Overall Results” value [5, 10] was 8/10 and the Time to relapse ([5]; oral 3 mg/kg × 10 days, 28–37 DPI, monkey 687M) was 14 days post-LDD. For the same compound, the Cured/treated ([5]; oral 3 mg/kg × 10 days, 3 mg/kg) was “did not cure any monkey and did not achieve cure in any monkey and 0/2”, the “Provisional efficacy at EoT” value ([5]; oral 3 mg/kg × 10 days, monkeys 670F, 687M) was “Not cured” and the “drug dose after which brief period of aparasitaemia started” value ([5]; oral 3 mg/kg/day × 10 days, 34 DPI) was 7 drug dose. The Cured/treated ([5]; oral 10 mg/kg × 10 days) was 1/4, the “Time to initial clearance of trypanosomes from body fluids (blood and CSF)” value ([5]; oral 10 mg/kg × 10 days, 28–37 DPI) was 1 days post-LDD and the Time to relapse ([5]; oral 10 mg/kg × 10 days, 28–37 DPI, individual monkeys, 10 mg/kg) was 56 days post-LDD and 28 days post-LDD. The “Provisional efficacy at EoT” value ([5]; oral 10 mg/kg × 10 days, monkeys 688M, 690F, 695M, 697F) was “Cured”, the “Final efficacy assessment at 300 days post-LDD of DB868” value [5, 11] was “R and Cured” and the “Provisional efficacy at 100 days post-LDD of DB868” value [5, 11] was “R and Cured”. For the same compound, the “median (range) time to relapse” value ([5]; oral 10 mg/kg/day × 10 days) was 28 (28–56) days post-LDD, the monkeys relapsed ([5]; oral 10 mg/kg/day × 10 days) was 3/4 and the “day of dosing by which monkeys became blood parasite negative” value ([5]; oral 10 mg/kg/day × 10 days, 34 DPI) was ≤ 7 day of dosing. For the same compound, the Cured/treated ([5]; oral 20 mg/kg × 10 days) was 1/4, the Time to relapse ([5]; oral 20 mg/kg × 10 days, 28–37 DPI, individual monkeys, 20 mg/kg) was 161 days post-LDD and 133 days post-LDD and 77 days post-LDD and the “Provisional efficacy at EoT” value ([5]; oral 20 mg/kg × 10 days, monkeys 573F, 679F, 689M, 696M) was “Cured”. The “Final efficacy assessment at 300 days post-LDD of DB868” value [5, 12] was “R and Cured”, the “Provisional efficacy at 100 days post-LDD of DB868” value [5, 12] was “R and Cured” and the monkeys relapsed ([5]; oral 20 mg/kg/day × 10 days) was 3/4. The “median (range) time to relapse” value ([5]; oral 20 mg/kg/day × 10 days, 20 mg/kg/day) was 133 (77–161) days post-LDD and 133 days post-LDD, the “day of treatment by which monkeys became aparasitaemic (blood)” value ([5]; oral 20 mg/kg/day × 10 days, 34 DPI) was ≤ 7 day of treatment and the tolerability in rats [6] was “better tolerated than pafuramidine”.
In the case of Nc1nc(N)nc(Nc2ccc([As]3SCC(CO)S3)cc2)n1 (stereo not drawn) [melarsoprol, reference compound], the “rescue treatment of monkeys that relapsed after DB868” value ([5]; melarsoprol intravenously 3.6 mg/kg/day for 4 consecutive days, 3.6 mg/kg/day) is reported as “successfully rescue-treated and 5/6”.
For CON=C(N)c1ccc(-c2ccc(-c3ccc(C(N)=NOC)cn3)o2)cc1 [DB844], the “cure rate against second stage HAT in non-human primates” value [7] is given as 3/7 and the “efficacy in murine models of first and second stage HAT” value [8] is given as “fully curative”.
For CONC(=N)c1ccc(-c2ccc(-c3ccc(C(=N)NOC)cc3)o2)cc1 [pafuramidine, 2,5-bis (4-amidinophenyl)-furan-bis-O-methlylamidoxime], the “cure rate against second stage HAT in non-human primates” value [7] is listed as 0/3, the “efficacy against first stage HAT in monkeys” value ([2]; oral administration) is listed as “fully curative” and the “efficacy in murine models of first and second stage HAT” value [8] is listed as “fully curative”. The “absorptive permeability compared with the active diamidine furamidine (DB75)” value [9] was “improved absorptive permeability”.
In the case of N=C(N)c1ccc(OCCCCCOc2ccc(C(=N)N)cc2)cc1 [pentamidine, reference compound], the “cure rate when treatment initiation was delayed to 14 days post-infection” value ([2]; IM, monkeys, T. b. rhodesiense KETRI 2537, ref unpublished data, TRC-KARI) is given as 0/3 and the “cure rate in first stage disease” value ([2]; IM, monkeys) is given as 2/3.
